US11690828B2, “Treatment of CNS diseases with sGC stimulators” (Cyclerion Therapeutics, Inc., priority 2016, dated 2023)
pEC50: −log10 of the molar value.

Assays:
[1] = Rat cerebrospinal fluid (CSF) pharmacokinetic properties; assay type: in vivo; conditions: male, Sprague-Dawley; for concentration at 1 h: CSF, PO 10 mg/kg in PEG400, 1 h post-dosing, read-out: CSF Conc (nM @ 1 h); for Kp uu at 1 h: PO 10 mg/kg, unbound CSF / unbound plasma
Procedure: PK in rats was determined following oral dosing. For the oral (PO) experiments, a group of 6 male Sprague-Dawley rats with an indwelling catheter placed in the cisterna magna were used. The PO group was dosed with 3 or 10 mg/kg of a compound formulated as a solution in PEG400. PO doses were administered by oral gavage and delivered to the stomach using a syringe and gavage tube. Following oral dosage administration, the gavage tube was flushed with approximately 0.5 mL of water to ensure complete delivery of the full dose.
Plasma and CSF samples were collected as follows: samples of CSF and blood were collected at 1 hour and 2 hours post-dosing. CSF samples (0.05 mL) were collected through the intracisternal catheter. Blood samples (0.25 mL) were collected through retro-orbital sampling. These samples were kept on ice until processed for plasma. Blood samples were centrifuged at 3200 rpm for 5 minutes at approximately 5° C. within 1 hour of collection. Plasma was directly transferred to a 96-well plate tube (0.125 mL). Plug caps were placed on the tubes and the tubes frozen at approximately −70° C. and stored until analysis.
Plasma was collected and analyzed for the presence of compound.
The compound in question and the internal standard were extracted from plasma and CSF by precipitation. Samples were analyzed using liquid chromatography (LC) with tandem mass spectrometric detection (MS/MS) using electrospray ionization. The standard curve range was from 1 to 1000 ng/mL.
Kp,uu is defined as the concentration ratio of unbound drug in CSF to unbound drug in plasma. Unbound drug in plasma (or free plasma concentration) is calculated by multiplying the total plasma concentration by the unbound fraction as determined by plasma protein binding. The CSF concentration is then divided by the free plasma concentration to determine the Kp,uu. (See e.g., Di et al., J. Med. Chem., 56, 2-12 (2013)).

[2] = test system: sGC; assay: cGMP neuronal cell-based assay; conditions: rat primary hippocampal neurons; 30 μM DETA-NO; 50% of high control (10 μM Compound Y); read-out: sGC-neuron Abs EC50
Procedure: Rat primary neurons were isolated from fetuses of 18-day pregnant Sprague-Dawley females. The fetuses were collected in Hanks' balanced salt solution (HBSS) and brains were rapidly removed. The cerebral hippocampi were isolated and mechanically fragmented. Further tissue digestion was performed with 0.25% (wt/vol) trypsin solution in HBSS without Ca2+ and Mg2+ for 15 min at 37° C. After trypsination, cells were washed and resuspended in neurobasal medium supplemented with 0.5 mM L-glutamine, 12.5 uM glutamic acid, 2% B-27 and 100 U/mL penicillin, and 100 μg/mL streptomycin. Cells were plated at a density of 4×10^4 cells/well in a poly-D-lysine coated 384-well flat clear-bottom plate (Corning Cat No 354662). Cells were incubated 6-7 days at 37° C. in a humidified chamber with 5% CO2. Media was removed and cells were washed 1× with HBSS containing Ca2+ and Mg2+, and replaced with 40 uL HBSS containing 0.5 mM IBMX, and incubated for 15 minutes at 37° C. 10 uL of a 5× stock of test compounds with diethylenetriamine NONOate (DETA-NO) was added. Final concentration of DETA-NO was 30 μM. Cells were incubated for 20 min at 37° C. Medium was removed, 50 uL of ice-cold 10% acetic acid was added, and incubated for 60 minutes at 4° C. Following centrifugation at 4° C. for 5 minutes at 1000×g to pellet cell debris, the supernatant was aspirated to a clean plate and the samples were analyzed for cGMP content. cGMP concentrations were determined from each sample using LC-MS/MS.
Data were normalized to a high control using the following equation: 100*(Sample−Low Control)/(High Control−Low Control), where the low control is the average of 15 samples treated with 1% DMSO, and the high control is the average of 15 samples treated with 10 μM of the known sGC stimulator Compound Y (depicted in Example 2). Data were fit using a 4-parameter fit (log(agonist) vs. response—variable slope) using GraphPad Prism Software v.5. n=2 for all compounds. […]

[3] = test system: rats; assay: Kaolin - gait score; assay type: in vivo, rat; conditions: Compound I-2 p.o. 10 mg/kg; 120 minutes after treatment
Procedure: Kaolin. Induction: In rats, unilateral arthritis was induced by an intra-articular injection of a 10% kaolin suspension into the knee joint of the right hind paw under gas anesthesia (3.5% isoflurane/3 L/min). Gait score: The gait score will be evaluated 3 h 30 min after kaolin administration by:
2: intermittent raising of the paw
(§1) Testing: 120 minutes after treatment. N=4/model/test. Results are expressed for each group as a percentage of activity calculated from the mean value of the vehicle-treated animals and compared to naïve animals, control paw, or cut-off value, depending on the test.

[4] = test system: cGMP; assay: Dose-response compound-induced cGMP in mouse brain (cerebrum); assay type: in vivo; conditions: 30 minutes after dosing
Procedure: Protocol. Experimental Day 1: Fast mice overnight with ad libitum access to water. Experimental Day 2: Mice (n=10 per experimental condition) were dosed P.O. with vehicle (1% hydroxypropyl methyl cellulose, 0.2% Tween80, 0.5% methyl cellulose), 3 or 10 mg/Kg of Compound I-2 prepared in vehicle. Thirty minutes after dosing, under isoflurane anesthesia, each mouse was decapitated and its brain was removed. The cerebrum was separated from each brain and placed in separate 15 ml falcon tubes and flash froze by immersion into liquid nitrogen. The tissue samples were stored at −80 C. cGMP levels in brain were determined by LC/MS. Brain samples were homogenized in an aqueous buffer consisting of 80:20 (V/V %) water:acetic acid using an ultrasonicator probe. Brain homogenates containing sGC compounds and or cGMP were extracted from brain tissue by protein precipitation with an organic solvent containing internal standards (IS) followed by filtration and phospholipid removal using a Phenomenex® Phree™ phospholipid removal plate. Samples were analyzed using liquid chromatography (LC) with tandem mass spectrometric detection (MS/MS) using electrospray ionization. The standard curve concentrations used for quantitation of cGMP and or sGC compound(s) ranged from 0.2 to 400 ng/mL. Protein quantification of brain samples was determined using BCA protein assay kit

[5] = test system: Healthy rats; assay: Healthy rats - tail flick test; assay type: in vivo, rat; conditions: Compound I-2 p.o. 10 mg/kg; 120 minutes after treatment
Procedure: Tail Flick Test. A radiant heat was applied on the tail. When the rat felt discomfort, it reacted by a sudden tail movement (tail flick) which automatically stopped the stimulation and the timer for the measurement by the animal reaction time or nociceptive reaction latency (period from the beginning of the stimulation until detection of the response of the animal). A cut-off was previously fixed at 10 sec in order to prevent tissue damage.
as §1

## FC(F)(F)c1n[nH]c(-c2nc(Cc3cncnc3)c3ccccn23)n1 [Compound I-5]
[1]
  concentration at 1 h: 446 nM
  Kp uu at 1 h: 3.26
[2]
  pEC50: ≥ 7.00

## Fc1ccccc1Cn1nc(-c2nc(C(F)(F)F)n[nH]2)c2cccnc21 [Compound I-2]
[3]
  % of activity vs. vehicle, kaolin gait score: 88%
[4]; acute 3 mg/Kg P.O.
  cGMP in mouse brain as compared to vehicle dosed animals: increases
[4]; acute 10 mg/Kg P.O.
  cGMP in mouse brain as compared to vehicle dosed animals: increases
[5]
  % of activity vs. vehicle, healthy rats tail flick test: 15%
[1]
  concentration at 1 h: 62.9 nM
  Kp uu at 1 h: 3.16
[2]
  pEC50: ≥ 7.00
